According to ChEMBL document CHEMBL3045404, “Structure-Activity Relationships of 2-Chloropyridine-3-carboxamide Fungicides” (J Pestic Sci, 1992):

Assays:
[1] = tested on: Rhizoctonia solani; assay: Antifungal activity against Rhizoctonia solani infested in rice seedling incubated for 40 hr in moist chamber followed by incubation for 3 days in greenhouse conditions; format: functional, organism-based
[2] = tested on: Botrytis cinerea; assay: Antifungal activity against Botryotinia fuckeliana infested in cucumber seedling cotyledons after 4 days by pot test; format: functional

CC1CC(C)(C)c2cccc(NC(=O)c3cccnc3Cl)c21 (stereo unspecified)
EC50 [1]: 7.76 µM | pEC90 [2]: 4.7

O=C(Nc1ccccc1-c1ccccc1)c1cccnc1Cl
EC50 [1]: > 6310 µM | pEC90 [2]: 2.8

O=C(Nc1cccc2c1CCC2)c1cccnc1Cl
EC50 [1]: 692 µM | pEC90 [2]: 2.68

O=C(Nc1ccccc1)c1cccnc1Cl
EC50 [1]: 1000 µM | pEC90 [2]: 2.2

CCc1cccc(NC(=O)c2cccnc2Cl)c1
EC50 [1]: 158 µM | pEC90 [2]: <2.2

CCOc1cccc(NC(=O)c2cccnc2Cl)c1
EC50 [1]: 85.1 µM | pEC90 [2]: <2.2

CC(C)Oc1cccc(NC(=O)c2cccnc2Cl)c1
EC50 [1]: 57.5 µM | pEC90 [2]: <2.2

CCc1ccccc1NC(=O)c1cccnc1Cl
EC50 [1]: 2000 µM | pEC90 [2]: 2.57

CC(C)c1ccccc1NC(=O)c1cccnc1Cl
EC50 [1]: 1510 µM | pEC90 [2]: 3.19

CCOc1ccccc1NC(=O)c1cccnc1Cl
EC50 [1]: 1100 µM | pEC90 [2]: 2.48

C=C(C)c1ccccc1NC(=O)c1cccnc1Cl
EC50 [1]: 1170 µM | pEC90 [2]: 3.78

CCOc1c(NC(=O)c2cccnc2Cl)cccc1C(C)C
EC50 [1]: 112 µM | pEC90 [2]: 3.32

CCc1c(C)cccc1NC(=O)c1cccnc1Cl
EC50 [1]: 724 µM | pEC90 [2]: 2.96

CC1CCc2cccc(NC(=O)c3cccnc3Cl)c21 (stereo unspecified)
EC50 [1]: 631 µM | pEC90 [2]: 4.15

CC1Cc2cccc(NC(=O)c3cccnc3Cl)c2C1 (stereo unspecified)
EC50 [1]: 692 µM | pEC90 [2]: 3.11

CC1CCc2c(NC(=O)c3cccnc3Cl)cccc21 (stereo unspecified)
EC50 [1]: 52.5 µM | pEC90 [2]: 3.03

CC1(C)CCc2c(NC(=O)c3cccnc3Cl)cccc21
EC50 [1]: 28.8 µM | pEC90 [2]: 2.97

CCC1CC(C)(C)c2cccc(NC(=O)c3cccnc3Cl)c21 (stereo unspecified)
EC50 [1]: 7.24 µM | pEC90 [2]: 4.75

CCC1CC(C)(CC)c2cccc(NC(=O)c3cccnc3Cl)c21 (stereo unspecified)
EC50 [1]: 33.9 µM | pEC90 [2]: 4.58

CC1SCc2cccc(NC(=O)c3cccnc3Cl)c21 (stereo unspecified)
EC50 [1]: 933 µM | pEC90 [2]: 2.93

CC1OCc2cccc(NC(=O)c3cccnc3Cl)c21 (stereo unspecified)
EC50 [1]: 525 µM | pEC90 [2]: 2.93

CC1OC(C)(C)c2cccc(NC(=O)c3cccnc3Cl)c21 (stereo unspecified)
EC50 [1]: 14.1 µM | pEC90 [2]: 3.93

CCC1OC(C)(C)c2cccc(NC(=O)c3cccnc3Cl)c21 (stereo unspecified)
EC50 [1]: 12.3 µM | pEC90 [2]: 3.55

O=C(Nc1cccc2c1OCC2)c1cccnc1Cl
EC50 [1]: 1620 µM | pEC90 [2]: <2.2

CC1(C)Cc2cccc(NC(=O)c3cccnc3Cl)c2O1
EC50 [1]: 214 µM | pEC90 [2]: 3.84

CCCCC1(CC)Cc2cccc(NC(=O)c3cccnc3Cl)c2O1 (stereo unspecified)
EC50 [1]: 1550 µM | pEC90 [2]: 3.04

Cc1oc2cccc(NC(=O)c3cccnc3Cl)c2c1C
EC50 [1]: 603 µM | pEC90 [2]: <2.2

CC1Oc2cccc(NC(=O)c3cccnc3Cl)c2C1C (stereo unspecified)
EC50 [1]: 631 µM | pEC90 [2]: <2.2

CC1(C)Oc2cccc(NC(=O)c3cccnc3Cl)c2O1
EC50 [1]: 759 µM | pEC90 [2]: 2.76

CC1(C)CCc2cccc(NC(=O)c3cccnc3Cl)c2O1
EC50 [1]: 1450 µM | pEC90 [2]: 3.66

CCC1(CC)CCc2cccc(NC(=O)c3cccnc3Cl)c2O1
EC50 [1]: 1150 µM | pEC90 [2]: 4.41

CC1(C)OCc2cccc(NC(=O)c3cccnc3Cl)c2O1
EC50 [1]: 1450 µM | pEC90 [2]: 3.29

CCC1(C)Oc2c(NC(=O)c3cccnc3Cl)cccc2C(C)O1 (stereo unspecified)
EC50 [1]: 13.2 µM | pEC90 [2]: 3.57
